Patent US20250325688A1, “ANTIBODY-DRUG CONJUGATE CONTAINING PROTEIN DEGRADATION AGENT BIOACTIVE COMPOUND, METHOD FOR PREPARING SAME, AND USE THEREOF” (Medilink Therapeutics (Suzhou) Co., Ltd., priority 2022, published 2025)
Like-named read-outs stand apart in the source and are kept apart here.

Experiments:
MCF7 cells = test: Inhibitory activity of payloads on cell proliferation (Cell titer glo); type: cell-based; conditions: for EC50: 4 days culture
Procedure: (§1) The cells were incubated in an incubator at 37° C. overnight. The payload to be tested was dissolved in DMSO, and the resulting solution was aliquoted and cryopreserved at −80° C. The next day, the payload to be tested was subjected to 4-fold dilution to a maximum concentration of 10000 nM for 10 points using the respective complete medium. 100 µL of the diluted drug was added to the cell culture wells (2 replicates per well). After the cells were cultured at 37° C. for 4 days, 50 μL of Cell titer glo substrate was added to each well. After the cells were incubated for 5 min, the fluorescence values were measured.

N87 cells = test: as above; type: cell-based; conditions: for EC50: 4 days culture
Procedure: as §1

NUGC4 cells = test: as above; type: cell-based; conditions: for EC50: 4 days culture
Procedure: as §1

IKZF1/3 = conditions: clinical results shown at AACR April 2022; cited from earlier work
[1] = target: T1, B7H3 on tumor cells (MCF-7, A549, PC-3) (human) (UniProt Q5ZPR3); test: flow cytometry on A549 tumor cells
T1 sequence (looked up): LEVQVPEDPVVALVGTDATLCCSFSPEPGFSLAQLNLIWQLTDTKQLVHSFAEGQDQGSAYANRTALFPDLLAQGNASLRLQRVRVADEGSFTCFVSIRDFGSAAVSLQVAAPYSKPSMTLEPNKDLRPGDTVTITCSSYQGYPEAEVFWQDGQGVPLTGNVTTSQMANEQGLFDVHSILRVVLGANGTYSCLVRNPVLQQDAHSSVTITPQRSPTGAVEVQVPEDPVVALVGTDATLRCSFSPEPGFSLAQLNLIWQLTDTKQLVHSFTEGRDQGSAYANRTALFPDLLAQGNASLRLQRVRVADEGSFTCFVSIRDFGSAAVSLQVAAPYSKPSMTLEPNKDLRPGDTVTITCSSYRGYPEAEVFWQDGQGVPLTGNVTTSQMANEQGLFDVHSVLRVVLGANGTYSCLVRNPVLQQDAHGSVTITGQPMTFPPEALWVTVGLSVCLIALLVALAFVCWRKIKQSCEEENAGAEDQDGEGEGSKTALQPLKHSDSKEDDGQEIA

[2] = target: T1, B7H3 on tumor cells (MCF-7, A549, PC-3) (human); test: flow cytometry on A549 tumor cells; remark: listed apart in the source
[3] = target: T1, B7H3 on tumor cells (MCF-7, A549, PC-3) (human); test: flow cytometry on PC-3 tumor cells
[4] = target: T1, B7H3 on tumor cells (MCF-7, A549, PC-3) (human); test: flow cytometry on MCF-7 tumor cells
[5] = target: T1, B7H3 on tumor cells (MCF-7, A549, PC-3) (human); test: flow cytometry on MCF-7 tumor cells; remark: listed apart in the source
[6] = target: T2, human B7H3-4IgG-his (human) (UniProt Q5ZPR3); test: ELISA, coated human B7H3-4IgG-his, anti-human Fc-HRP detection
T2 sequence: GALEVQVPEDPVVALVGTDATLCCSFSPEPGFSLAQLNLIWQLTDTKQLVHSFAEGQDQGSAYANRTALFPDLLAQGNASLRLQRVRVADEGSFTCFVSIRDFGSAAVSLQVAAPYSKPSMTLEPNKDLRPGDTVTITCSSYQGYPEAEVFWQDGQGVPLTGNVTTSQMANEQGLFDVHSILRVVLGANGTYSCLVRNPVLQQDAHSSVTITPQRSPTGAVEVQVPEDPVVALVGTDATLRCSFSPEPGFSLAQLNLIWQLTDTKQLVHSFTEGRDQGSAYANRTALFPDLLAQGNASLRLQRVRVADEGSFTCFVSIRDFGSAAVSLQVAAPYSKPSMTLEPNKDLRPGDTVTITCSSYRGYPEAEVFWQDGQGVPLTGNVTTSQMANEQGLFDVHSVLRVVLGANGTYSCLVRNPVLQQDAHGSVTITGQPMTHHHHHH

[7] = target: T2, human B7H3-4IgG-his (human); test: as above; remark: listed apart in the source
[8] = target: monkey B7H3-4IgG-his (monkey); test: ELISA, coated monkey B7H3-4IgG-his, anti-human Fc-HRP detection
[9] = target: monkey B7H3-4IgG-his (monkey); test: as above; remark: listed apart in the source

For `CN(CCCc1ccc(NC(=O)NCc2ccc3c(c2)CN(C2CCC(=O)NC2=O)C3=O)cc1)C(=O)CO` (stereo not drawn) [PL-5, N-(3-(4-(3-(2-(2,6-dioxopiperidin-3-yl)-1-oxoisoindolin-5-methyl)ureido)phenyl)propyl)-2-hydroxy-N-methylacetamide], which EC50 (MCF7 cells; Homo sapiens, MCF7, 96 h) is on record?
Its EC50 is 228 nM.

And the EC50 (N87 cells; 96 h)?
The EC50 was 1590 nM.

What about the EC50 (NUGC4 cells; Homo sapiens, NUGC-4, 96 h) of the same molecule?
Its EC50 is 502 nM.

Which results are given for `CNCCOCCc1ccc(NC(=O)NCc2ccc3c(c2)CN(C2CCC(=O)NC2=O)C3=O)cc1Cl` (stereo not drawn) [Control compound 1]?
EC50 (MCF7 cells; Homo sapiens, MCF7, 96 h): 983 nM; EC50 (N87 cells; 96 h): 572 nM; EC50 (NUGC4 cells; Homo sapiens, NUGC-4, 96 h): 345 nM

Which results are given for `CN(CCOCCc1ccc(NC(=O)NCc2ccc3c(c2)CN(C2CCC(=O)NC2=O)C3=O)cc1Cl)C(=O)CO` (stereo not drawn) [PL-4, N-(2-chloro-4-(3-(2-(2,6-dioxopiperidin-3-yl)-1-oxoisoindolin-5-methyl)ureido)phenethoxy)ethyl-2-hydroxy-N-methylacetamide]?
inhibitory activity on the proliferation of MCF7 cells (in words) (MCF7 cells): significantly superior to that of control compound 1; EC50 (MCF7 cells): 44.7 nM; inhibitory activity on the proliferation of N87 cells (in words) (N87 cells): significantly superior to that of control compound 1; EC50 (N87 cells): 36.1 nM; inhibitory activity on the proliferation of NUGC4 cells (in words) (NUGC4 cells): significantly superior to that of control compound 1; EC50 (NUGC4 cells): 43.2 nM

Which results are given for `CN(CCCc1ccc(NC(=O)NCc2ccc3c(c2)CN(C2CCC(=O)NC2=O)C3=O)cc1Cl)C(=O)CO` (stereo not drawn) [PL-1, N-(3-(2-chloro-4-(3-((2-(2,6-dioxopiperidin-3-yl)-1-oxoisoindolin-5-yl)methyl)ureido)phenyl)propyl)-2-hydroxy-N-methylacetamide]?
inhibitory activity on the proliferation of MCF7 cells (in words) (MCF7 cells): significantly superior to that of control compound 1; EC50 (MCF7 cells; Homo sapiens, MCF7, 96 h): 62.1 nM; inhibitory activity on the proliferation of N87 cells (in words) (N87 cells): significantly superior to that of control compound 1; EC50 (N87 cells; 96 h): 14.3 nM

For `CN(CCCc1ccc(C(F)(F)C(=O)NCc2ccc3c(c2)CN(C2CCC(=O)NC2=O)C3=O)cc1Cl)C(=O)CO` (stereo not drawn) [PL-2], which EC50 (N87 cells; 96 h) is on record?
The EC50 was 193 nM.

For `CN(CCCc1ccc(NC(=O)NCc2ccc3c(c2)C(=O)N(C2CCC(=O)NC2=O)C3=O)cc1Cl)C(=O)CO` (stereo not drawn) [PL-3, N-(3-(2-chloro-4-(3-((2-(2,6-dioxopiperidin-3-yl)-1,3-dioxoisoindol-5-yl)methyl)ureido)phenyl)propyl)-2-hydroxy-N-methylacetamide], which EC50 (N87 cells; 96 h) is on record?
The EC50 was 851 nM.

Which “dose-limiting toxicity in the clinic” value (IKZF1/3) does the source give for `O=C1CC[C@H](N2C(=O)c3cccc4c(Cc5ccc(CN6CCOCC6)cc5)ccc2c34)C(=O)N1` [CFT7455] here?
The value was “decreased neutrophil was dose-limiting”.

B1: B7H3-C1 antibody (antibody, INN chains, looked up, V domains shown)
VH: QVQLVQSGAEVKKPGSSVKVSCKASGYTFTNYVMHWVRQAPGQGLEWMGYINPYNDDVKYNEKFKGRVTITADESTSTAYMELSSLRSEDTAVYYCARWGYYGSPLYYFDYWGQGTLVTVSS
VL: EIVLTQSPATLSLSPGERATLSCRASSRLIYMHWYQQKPGQAPRPLIYATSNLASGIPARFSGSGSGTDFTLTISSLEPEDFAVYYCQQWNSNPPTFGQGTKVEIK
Which results are given for B1?
EC50 [1]: 1.86 nM; Maximum MFI [1]: 8270; EC50 [2]: 1.05 nM; Maximum MFI [2]: 48000; EC50 [3]: 0.618 nM; Maximum MFI [3]: 6440; EC50 [4]: 1.71 nM; Maximum MFI [4]: 84000; EC50 [5]: 1.36 nM; Maximum MFI [5]: 63200; EC50 [6]: 0.048 nM; EC50 [7]: 0.0519 nM; EC50 [8]: 0.167 nM; EC50 [9]: 3.92 nM
